Reference: patent publication US12241049B2, “Multi-compartment device containing human three-dimensional (3D) microtissues for toxicity testing” (BROWN UNIVERSITY, priority 2019, dated 2025)

Test system: HepaRG 3D microtissues
Details: 10-day old HepaRG 3D microtissues, 1.2 mM CPA
Source text: FIG. 2B is a chart showing the change in HepaRG spheroid volume as an indicator of cytotoxicity induced by cyclophosphamide (CPA) with or without 1-aminobenzotriazol (ABT). The inventors analyzed the data with two-way ANOVA with Tukey's LSD means. P=0.05. […] FIG. 2C is a picture showing hematoxylin and eosin (H&E) stained toroid-shaped HepaRG microtissues. Scale bars=100 μm.

## O=P1(N(CCCl)CCCl)NCCCO1 (stereo not shown) [CPA, cyclophosphamide]
  cytotoxicity: cell death and spheroid volume: caused cell death and a significant reduction in spheroid volume
